The results in this text go back to ChEMBL document CHEMBL3507680, “University of Dundee, Gates Library screen for HepG2 cell viability”.

This data set is described as follows: Human HepG2 cell viability assay in 384 well format. The following applies: HepG2 cells, read-out: Inhibition. The arrangement: dose 125 nL, time 70.5 hour; cytotoxicity at 70.5 h: concentration not given beside the values. Format: toxicity, cell-based.
`O=C(c1ccccn1)N1C[C@@H](OCc2cccnc2)[C@H]2OCCC[C@@H]21`: the cytotoxicity at 70.5 h came to 9.73%.

For the compound `Cc1nnn2c1COCC(CNC(=O)c1ccc[nH]1)C2` (configuration not stated), the cytotoxicity at 70.5 h worked out at 7.03%.

On to `Cc1nc(CN2CCO[C@@H]3CN(C(=O)CC4CC4)CC[C@@H]3C2)cs1`, for which the cytotoxicity at 70.5 h is -13.3%.

With `CC(C)NC(=O)N1CCC2(CC(=O)N(c3ccccc3)C2)C1` (configuration not stated), the cytotoxicity at 70.5 h worked out at 17.9%.

With `Cc1nc([C@@H]2C[C@@H]3CCN(C(=O)c4ccsc4)C[C@H]3O2)no1`, the cytotoxicity at 70.5 h is -4.84%.

For the compound `O=C(NCC1CC1)C1=NOC2(CCN(S(=O)(=O)c3ccc(F)cc3)C2)C1` (configuration not stated), the cytotoxicity at 70.5 h was -0.024%.

Turning to `Cc1nc([C@@H]2C[C@@H]3CCN(C(=O)Cc4cccs4)C[C@H]3O2)no1`, the cytotoxicity at 70.5 h was -11.4%.

As for `CC(C)CNC(=O)[C@H]1C[C@@H]2CN(C(=O)NCCc3ccccc3)C[C@H]1O2`, the cytotoxicity at 70.5 h was -10.9%.

`CC(C)NC(=O)[C@H]1C[C@@H]2CN(C(=O)NCCc3ccccc3)C[C@H]1O2`: the cytotoxicity at 70.5 h came to 8.95%.

In the case of `COc1cccc(N2CC3(CCN(C(=O)NC(C)C)C3)CC2=O)c1` (configuration not stated), the cytotoxicity at 70.5 h is -7.02%.

For `CCS(=O)(=O)N1CCc2c(cnc(-c3cccnc3)c2C(=O)O)C1`, the cytotoxicity at 70.5 h was 10.1%.

As to `O=C(NCC1CC1)[C@H]1C[C@@H]2CN(C(=O)NCc3ccccc3)C[C@H]1O2`, the cytotoxicity at 70.5 h was determined as 11.4%.

With `CCOCC1CN(C(=O)Cc2ccccn2)Cc2cn(CC)nc21` (configuration not stated), the cytotoxicity at 70.5 h is -8.43%.

As to `Cc1noc([C@H]2C[C@H]3CN(C(=O)Cc4ccsc4)CC[C@H]3O2)n1`, the cytotoxicity at 70.5 h is -9.17%.

`CCOCC1CN(C(=O)Cc2ccccn2)Cc2cn(C)nc21` (configuration not stated): the cytotoxicity at 70.5 h was -10.7%.

`O=C(c1cnccn1)N1C[C@@H]2CN(Cc3cccnc3)CCO[C@@H]2C1`: the cytotoxicity at 70.5 h is 18.1%.

As to `Cn1cccc1C(=O)N1CCc2onc(Cn3cccn3)c2C1`, the cytotoxicity at 70.5 h is -5.3%.

Turning to `c1cnc(N2CCOCC3(CCCN(c4nncs4)C3)C2)cn1` (configuration not stated), the cytotoxicity at 70.5 h was -3.82%.

Take `Cc1ccc(-n2cc(CN3CCOCC3)c(-c3cccc(C)c3)n2)cc1`: the cytotoxicity at 70.5 h is -2.44%.

For `O=C(N[C@@H]1C[C@H]2CC[C@@H]1C2)C1(Oc2ccc(Cl)cc2)CCNCC1`, the cytotoxicity at 70.5 h is -2.25%.

With `CC(=O)NCc1nc(CCOc2ccc(Cl)cc2)no1`, the cytotoxicity at 70.5 h is -4.84%.

As for `COCC(O)CNC(=O)c1coc(COc2cccc(F)c2)n1` (configuration not stated), the cytotoxicity at 70.5 h was -4.43%.

For `CCCc1nnc(NCCn2nc(C)c(Cl)c2C)o1`, the cytotoxicity at 70.5 h is -7.4%.

In the case of `Cc1cccnc1CN1CCN(C(=O)[C@@]23CNC[C@@H]2CN(C)C3)CC1`, the cytotoxicity at 70.5 h was -8.36%.

Take `CN1CCC(N(C)CCC(=O)N2CCC(CCc3ccccc3)CC2)C1` (configuration not stated): the cytotoxicity at 70.5 h was found to be 26.3%.

Take `NC(=O)[C@@H]1CCCN1C(=O)c1cn(C/C=C/c2ccccc2)nn1`: the cytotoxicity at 70.5 h was -14%.

For `O=c1[nH]c(COc2ccc(Cl)cc2)nc2c1CCNC2`, the cytotoxicity at 70.5 h was determined as 16.3%.

Consider `CC[C@H]1CN(C(=O)c2ccc(-n3cnnc3)nc2)CC[C@@]1(C)O`, for which the cytotoxicity at 70.5 h was determined as 36%.

`CCCOc1ccc2ccccc2c1CN1CC[C@@]2(O)CCNC[C@H]2C1`: the cytotoxicity at 70.5 h is -4.34%.

As to `COc1ccc(C(C(=O)O)N2CCC(O)(c3cccnc3)CC2)cc1F` (configuration not stated), the cytotoxicity at 70.5 h came to 6.42%.

For the compound `COCCNC(=O)CCC1CCN(Cc2cccc(SC)c2)CC1`, the cytotoxicity at 70.5 h is 5.26%.

Take `CN(Cc1nccs1)c1nccc(N2CCN[C@H]3CS(=O)(=O)C[C@H]32)n1`: the cytotoxicity at 70.5 h was determined as 2.95%.

For the compound `COc1ccccc1CNC(=O)CN(C)C(C)c1nccs1` (configuration not stated), the cytotoxicity at 70.5 h was -1.57%.

As to `CCC[C@@H]1CN(Cc2nnc(-c3cccnc3)o2)C[C@H]1NC(C)=O`, the cytotoxicity at 70.5 h was -7.21%.

For the compound `COCCc1ncc(-c2c(C#N)c(N)nc3c2CCc2[nH]ccc2-3)cn1`, the cytotoxicity at 70.5 h is -3.18%.

On to `Cc1nc(O)cc(C2CCN(C(=O)CN(C)c3ccccc3)CC2)n1`, for which the cytotoxicity at 70.5 h was -3.24%.

Take `Cc1ccc(SCCN(C)C(=O)c2cn([C@H]3CC[C@@H](N)CC3)nn2)cc1`: the cytotoxicity at 70.5 h amounted to 16.5%.

`CN(C)S(=O)(=O)N1CC[C@]2(O)CCN(c3nc4ccccc4s3)C[C@@H]2C1`: the cytotoxicity at 70.5 h was 3.99%.

Turning to `Cc1nc(N2CCC3(CCCN(C(C)C)C3=O)C2)c2sccc2n1` (configuration not stated), the cytotoxicity at 70.5 h is -13.4%.

Take `CCc1ccc(CN2CCN(c3ccc(Cl)nn3)CC2)nc1`: the cytotoxicity at 70.5 h was -4.56%.

On to `Cc1ccc(F)cc1S(=O)(=O)N1C[C@@H](C)[C@@](C)(O)C1`, for which the cytotoxicity at 70.5 h was found to be 14.7%.

With `COc1cccc(S(=O)(=O)N2CCCCC2CCN2CCCC2=O)c1` (configuration not stated), the cytotoxicity at 70.5 h is -7.04%.

Regarding `Cc1cc(NCc2nnc3n2CCCCC3)n2nc(C)c(C)c2n1`, the cytotoxicity at 70.5 h is -5.75%.

As for `Cc1cnc(C)c(N2CCCC(CO)(Cc3cccc(Cl)c3)C2)n1` (configuration not stated), the cytotoxicity at 70.5 h was found to be 21.2%.

Take `CCCN1CCc2[nH]cnc2C12CCN(C(=O)Cn1ccnc1C)CC2`: the cytotoxicity at 70.5 h was -6.5%.

As to `COc1ccc(CN2C[C@@H](CN(C)CCO)[C@@H](CO)C2)cc1Cl`, the cytotoxicity at 70.5 h was -7.1%.

Take `COCCN(C)CCN1CC2(CCN(C3CCOC3)CC2)OC1=O` (configuration not stated): the cytotoxicity at 70.5 h was -0.423%.

Consider `CC(=O)N1CCc2[nH]cnc2C12CCN(C(=O)Cc1ccccn1)CC2`, for which the cytotoxicity at 70.5 h is -14.9%.

On to `O=C(O)C1CC2(CCN(c3nccc4ccccc34)CC2)CN1` (configuration not stated), for which the cytotoxicity at 70.5 h was found to be 9.49%.

As for `CCC(CO)N(Cc1cccnc1)C(=O)c1ccoc1C` (configuration not stated), the cytotoxicity at 70.5 h turned out to be 0.679%.

In the case of `COCCCN1CCCC(c2nccn2CC2CCC2)C1` (configuration not stated), the cytotoxicity at 70.5 h was -15%.

On to `c1ccc(-c2cc(CN3C[C@@H]4CC[C@H](C3)N(CC3CC3)C4)on2)cc1`, for which the cytotoxicity at 70.5 h was -6.85%.

For the compound `CCCn1c(C)c(CC(=O)N(C)CC(=O)OC)c2c1CC(C)(C)CC2=O`, the cytotoxicity at 70.5 h is -3.68%.

As for `CC(C)=CCN1CCN(Cc2cccc(C)n2)CC1CCO` (configuration not stated), the cytotoxicity at 70.5 h is 6.26%.

With `CCc1[nH]c2ccc(CNc3cncc(C(=O)N(C)C)n3)cc2c1C`, the cytotoxicity at 70.5 h is -0.482%.

For the compound `CSc1ccc(CN(C(=O)c2cc[nH]n2)C2CC2)cc1`, the cytotoxicity at 70.5 h was -7.21%.

As to `CCn1cc(CN2CCCC2c2nc(-c3ccccc3)no2)cc1C#N` (configuration not stated), the cytotoxicity at 70.5 h came out at 2.37%.

`COCCN1C(=O)[C@H]2CC[C@@H]1CN(S(=O)(=O)c1cccc(Cl)c1)C2`: the cytotoxicity at 70.5 h is 17.8%.

For `N[C@H]1c2ccccc2C[C@@H]1NC(=O)C1CCN(Cc2ccco2)CC1`, the cytotoxicity at 70.5 h is -11.4%.

Regarding `O=C(C1NCCc2[nH]cnc21)N1CCC2(C=Cc3ccccc32)CC1` (configuration not stated), the cytotoxicity at 70.5 h is -7.07%.

Regarding `c1cncc(-c2noc(CNc3ncnc4c3CCNCC4)n2)c1`, the cytotoxicity at 70.5 h was -5.95%.

With `Cc1ccc(C(=O)NCC2CCN(Cc3ccccc3C#N)C2)cn1` (configuration not stated), the cytotoxicity at 70.5 h is -5.59%.

Take `CCc1ccc(CN2CCN(Cc3ncc[nH]3)[C@H]3CS(=O)(=O)C[C@H]32)nc1`: the cytotoxicity at 70.5 h was -6.57%.

As to `c1ccc(-c2cnn3cc(CN4CCC5(CCO5)CC4)cnc23)cc1`, the cytotoxicity at 70.5 h came out at 1.13%.

Turning to `Cc1nc[nH]c1CN1CCCN(c2nc3ccccc3s2)CC1`, the cytotoxicity at 70.5 h is -2.7%.

As for `Cc1ccc(C)c2c(O)cc(CN3CCC(=O)NCC3C)nc12` (configuration not stated), the cytotoxicity at 70.5 h was -8.42%.

Consider `CCc1cc(N2CCC(n3cc(C(=O)NC4CC4)nn3)CC2)ncn1`, for which the cytotoxicity at 70.5 h came to 12.5%.

For `CCC(c1nc(C(C)C)nn1-c1ccccn1)n1cccn1` (configuration not stated), the cytotoxicity at 70.5 h stood at 17.2%.

For `Cc1nn(C)c(C)c1CN(C)C(=O)C1COc2ccccc2C1` (configuration not stated), the cytotoxicity at 70.5 h was -3.84%.

Turning to `NC(=O)c1ccnc(N2CCCC(CO)(Cc3ccc(F)cc3)C2)c1` (configuration not stated), the cytotoxicity at 70.5 h is -6.25%.

On to `CC(=O)Nc1ccc(-c2ccccc2NC(=O)CN)cc1`, for which the cytotoxicity at 70.5 h turned out to be 28.6%.

In the case of `N#Cc1cccc(NC2CC(=O)N(CCCc3ccccc3)C2)n1` (configuration not stated), the cytotoxicity at 70.5 h is -19.4%.

`CC1=CC[C@@H]2CN(C(=O)c3ccc(-c4nnn(C)n4)cc3)C[C@@H]2C1`: the cytotoxicity at 70.5 h worked out at 6%.

In the case of `CC(C)c1ccccc1NC(=O)N1C[C@@H]2CC[C@H](C1)N(C)C2=O`, the cytotoxicity at 70.5 h came out at 27.2%.

As for `Cc1nc[nH]c1C(=O)N1CCC2(CN(C)C(=O)O2)C1` (configuration not stated), the cytotoxicity at 70.5 h was -7.68%.

For `O=c1n(CC2CC2)nc(C2CCNCC2)n1Cc1ccccc1`, the cytotoxicity at 70.5 h stood at 9.69%.

Consider `O=C(NCc1ccccc1)C1=NOC2(CCNC2)C1` (configuration not stated), for which the cytotoxicity at 70.5 h is -11%.

`COCC(=O)N1C[C@@H](OCc2cccnc2)[C@H]2OCCC[C@@H]21`: the cytotoxicity at 70.5 h worked out at 14.3%.

On to `c1csc(CN2CCc3nnc(COc4cncnc4)n3CC2)c1`, for which the cytotoxicity at 70.5 h was -6.3%.

For the compound `N#Cc1cccc(N2CC3(CCN(C(=O)c4ccncc4)C3)CC2=O)c1` (configuration not stated), the cytotoxicity at 70.5 h is -5.96%.

On to `CCOCC1CC2(CCN(C(=O)c3ccc4ccccc4n3)CC2)CO1` (configuration not stated), for which the cytotoxicity at 70.5 h was -13.3%.

`O=C(c1ccccn1)N1CCC2(CC1)COC(COCC1CC1)C2` (configuration not stated): the cytotoxicity at 70.5 h was -8.98%.

In the case of `CC(C)CCN1C[C@H]2C[C@H](C(=O)NCc3ccccc3)[C@@H](C1)O2`, the cytotoxicity at 70.5 h is 5.49%.

Consider `CN(C)CCO[C@H]1CN(C(=O)c2cccs2)[C@@H]2COC[C@H]12`, for which the cytotoxicity at 70.5 h was determined as 20.9%.

For `Cn1cccc1C(=O)N1CCC2(CC1)COC(COc1ccccn1)C2` (configuration not stated), the cytotoxicity at 70.5 h was -6.63%.

For the compound `C1CN(CC2CC2)C(COCC2CC2)c2nnn(CC3CC3)c21` (configuration not stated), the cytotoxicity at 70.5 h is -12.9%.

As for `Cn1cc(CN2CCCC23CCN(C(=O)c2ccsc2)CC3)cn1`, the cytotoxicity at 70.5 h was -5.87%.

As for `Cn1cc(CN2CCCC23CCN(C(=O)c2ccccc2)CC3)cn1`, the cytotoxicity at 70.5 h is -11.9%.

Turning to `Cn1nnc2c1C(COCC1CC1)CN(Cc1ccoc1)C2` (configuration not stated), the cytotoxicity at 70.5 h was -9.19%.

As for `Cc1nc(CN2CCO[C@@H]3CN(Cc4cccs4)C[C@@H]3C2)cs1`, the cytotoxicity at 70.5 h is -4.54%.

Turning to `c1csc(CN2CCOCC3(CCN(C4CCOCC4)C3)C2)c1` (configuration not stated), the cytotoxicity at 70.5 h is -16.8%.

For the compound `O=C(O)c1c(-c2cccnc2)ncc2c1CCN(Cc1ccccn1)C2`, the cytotoxicity at 70.5 h was -8.57%.
